Laboratory results taken from PubChem BioAssay AID1949 (Southern Research Institute, 2009).
Values after ≈ are worked out from the molar mass of the structure shown. Results filed as inconclusive are left out. Active and inactive are the calls of the source. How the calls were made is not given here.

Test system: M. tuberculosis H37Rv growth inhibition
Assay: Confirmatory growth inhibition assay against Mycobacterium tuberculosis H37Rv, potency (AID 1949);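 further: bacteria grown 7 days with compound before Alamar blue readout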

Structure (SMILES) | IC50
CCOC(=O)c1c(NC(C)=O)sc2c(OCC(O)CN(CC)CC)c(Br)ccc12 (stereo not given) | 4.61 µg/mL (≈ 9.46 µM)
CCOC(=O)c1ccc(NC(=O)/C=C/c2ccc([N+](=O)[O-])s2)cc1 | 0.28 µg/mL (≈ 0.808 µM)
CCOC(=O)COc1ccc2c(c1)c(C(C)=O)c(C)n2Cc1ccccc1 | 24.9 µg/mL (≈ 68.2 µM)
Cc1ccc2nc(Cc3nc4ccc(C)cc4[nH]3)[nH]c2c1 | > 50 µg/mL (inactive)
O=C(NC(=S)N1CCCCCC1)c1ccc([N+](=O)[O-])cc1 | 1.42 µg/mL (≈ 4.62 µM)
CC1(C)C=Cc2c(nc3ccccc3c2NCc2ccccc2)C1 | 1.47 µg/mL (≈ 4.68 µM)
CCOC(=O)COc1ccc(Br)c(C=O)c1 | 5.47 µg/mL (≈ 19.1 µM)
O=C(Nc1cccc(C(F)(F)F)c1)c1ccc(Cn2cc(Cl)cn2)cc1 | 5.67 µg/mL (≈ 14.9 µM)
N#CC1=C(SCC(=O)Nc2ccccc2[N+](=O)[O-])NC(=O)CC1c1ccc(F)cc1 (stereo not given) | 6.76 µg/mL (≈ 15.9 µM)
Cc1ccc(N2C(=O)CC(Sc3ccccc3C(=O)Nc3ccccc3)C2=O)cc1 (stereo not given) | 4.92 µg/mL (≈ 11.8 µM)
Cc1ccc(-c2ccc(OCC(=O)OCc3ccccc3)cc2)cc1 | 0.23 µg/mL (≈ 0.692 µM)
CCc1nc2sc(C(=O)NCc3ccc(F)cc3)c(N)c2c(C(F)(F)F)c1C | 2.61 µg/mL (≈ 6.34 µM)
Cc1ccc(C2CC(c3cc(Br)ccc3O)=NN2)cc1 (stereo not given) | 3.46 µg/mL (≈ 10.4 µM)
COC(=O)CSc1nc2sc3c(c2c(=O)n1Cc1ccccc1)CCC(C(C)(C)C)C3 (stereo not given) | > 50 µg/mL (inactive)
CCCCOC(=O)COc1ccc2c(=O)c(Oc3ccc(OCC)cc3)c(C)oc2c1 | 1.59 µg/mL (≈ 3.73 µM)
Cc1cc(Cl)ccc1NC(=O)CCc1ccc(S(=O)(=O)NC(C)C)cc1 | 2.93 µg/mL (≈ 7.42 µM)
Oc1cccc2ccc(/C=C/c3cccc(F)c3)nc12 | 0.13 µg/mL (≈ 0.49 µM)
CCOC(=O)c1cc(CC)sc1NC(=O)c1cc2ccccc2oc1=O | 0.38 µg/mL (≈ 1.02 µM)
Cc1nc2ccccc2n1CCCOc1ccc(Cl)cc1 | 4.87 µg/mL (≈ 16.2 µM)
CCSc1nc2ccccc2n1C(=O)c1ccc(S(=O)(=O)N2CCOCC2)cc1 | > 50 µg/mL (inactive)
Cc1ccc(Cl)cc1N(CC(=O)Nc1ccc(I)cc1)S(C)(=O)=O | 4.66 µg/mL (≈ 9.73 µM)
Cc1ccccc1NC(=O)c1ccccc1NC(=S)NC(=O)c1cccnc1 | 1.3 µg/mL (≈ 3.33 µM)
O=C(CSc1ccc(F)cc1)Nc1ccccc1F | 5.83 µg/mL (≈ 20.9 µM)

Structure (SMILES) | IC50
Cc1cccc(NC(=S)NC(=O)CC23CC4CC(CC(C4)C2)C3)c1 | 2.89 µg/mL (≈ 8.44 µM)
Cc1ccccc1NC(=O)c1c(NC(=O)CN2CCN(C)CC2)sc2c1CCC(C(C)(C)C)C2 (stereo not given) | 40.2 µg/mL (≈ 83.3 µM)
Clc1cc(Cl)c2c(c1)NC(c1cccnc1)C1CC=CC21 (stereo not given) | 22.1 µg/mL (≈ 69.6 µM)
Cc1ccc(-c2nc(Nc3ccc(O)cc3)c3ccccc3n2)cc1 | 2.14 µg/mL (≈ 6.54 µM)
Cc1cc(Cl)ccc1N1CCN(CCNC(=O)Nc2ccc(F)cc2)CC1 | > 50 µg/mL (inactive)
N#Cc1ccc(-c2ccc(OCC(=O)Nc3cccnc3)cc2)cc1 | < 0.1 µg/mL
CCc1ccccc1N1C(=O)c2cccc3c([N+](=O)[O-])ccc(c23)C1=O | 19 µg/mL (≈ 54.9 µM)
Cc1cc([N+](=O)[O-])ccc1NC(=O)Nc1cccc(C(F)(F)F)c1 | 0.24 µg/mL (≈ 0.707 µM)
Cc1cccc(C)c1OCc1nnc(SCC(=O)NCCc2ccccc2)o1 | 1.75 µg/mL (≈ 4.4 µM)
CC(NC(=O)NNC(=O)c1ccncc1)(C(F)(F)F)C(F)(F)F | 0.18 µg/mL (≈ 0.523 µM)
COc1ccccc1Nc1nc(N)nc(CN2CCC(Cc3ccccc3)CC2)n1 | 37.8 µg/mL (≈ 93.5 µM)
O=[N+]([O-])c1ccc(N2CCN(CCO)CC2)cc1NCCOc1cccc2ccccc12 | 2.82 µg/mL (≈ 6.46 µM)
CCOc1ccccc1NC(=O)COc1ccc(C(C)C)cc1 | 5.01 µg/mL (≈ 16 µM)
O=c1oc(-c2ccccc2F)nc2sc3c(c12)CCCC3 | > 50 µg/mL (inactive)
CC(=O)c1cccc(NC(=S)NC(=O)c2ccc(C(C)(C)C)cc2)c1 | 12.5 µg/mL (≈ 35.3 µM)
Cc1ccc(C(=O)Oc2ccc(Cl)c3cccnc23)cc1[N+](=O)[O-] | 0.94 µg/mL (≈ 2.74 µM)
CCCC(=O)NC(=S)Nc1ccc(N2CCN(C(=O)c3cccs3)CC2)c(Cl)c1 | 0.61 µg/mL (≈ 1.35 µM)
CC(C)(C)c1ccc(C(=O)Nc2nc3ccccc3[nH]2)cc1 | < 0.1 µg/mL
CCCCc1ccc(NC(=O)CSCc2ccc(OC)cc2)cc1 | 12.9 µg/mL (≈ 37.5 µM)
S=C(NCc1ccc(Cl)cc1)NCc1ccc(-n2cccn2)cc1 | 5.4 µg/mL (≈ 15.1 µM)
OCc1nc2ccccc2n1CC(O)COc1ccc(OCc2ccccc2)cc1 (stereo not given) | 4.83 µg/mL (≈ 11.9 µM)
Cc1ccccc1OCCOc1cccc(C=O)c1 | 6.79 µg/mL (≈ 26.5 µM)
FC(F)(F)c1nnc2n1Nc1nc3ccccc3nc1S2 | 4.52 µg/mL (≈ 14.6 µM)

Structure (SMILES) | IC50
Cc1cc(=O)oc2c(C)c(OCC(=O)OCc3ccccc3)ccc12 | 2.11 µg/mL (≈ 6.24 µM)
O=C(c1ccccc1)c1ccc2nc(-c3cccc(NC(=O)C4CC4)c3)[nH]c2c1 | 7.78 µg/mL (≈ 20.4 µM)
Cc1ccc2nc(/C(C#N)=C\c3c[nH]c4ccc(Br)cc34)[nH]c2c1 | 0.62 µg/mL (≈ 1.64 µM)
CC1CCCN(Cc2c(O)ccc3c(=O)c(-c4nc5ccccc5s4)c(N)oc23)C1 (stereo not given) | 23.6 µg/mL (≈ 55.9 µM)
CN(C)c1ccc(NC(=O)c2ccncc2)cc1 | 2.89 µg/mL (≈ 12 µM)
Cc1oc2ccc(OC(=O)c3ccc(F)cc3)cc2c1C(=O)OC(C)C | 2.4 µg/mL (≈ 6.73 µM)
CCCCc1cc(=O)oc2cc(OC(C)C(=O)OCC)c(Cl)cc12 (stereo not given) | < 0.1 µg/mL
C#CCOc1c(Br)cc(/C=C/[N+](=O)[O-])cc1OC | 38.2 µg/mL (≈ 122 µM)
CCOC(=O)c1c(NC(=S)NC2CCN(Cc3ccccc3)CC2)sc(C)c1-c1ccccc1 | 1.38 µg/mL (≈ 2.8 µM)
Cc1cc(OCCOCCn2ccnc2)cc(C(C)C)c1 | > 50 µg/mL (inactive)
CCOC(=O)c1cc(-c2ccccc2)sc1NC(=S)NC(C)c1ccncc1 (stereo not given) | 1.47 µg/mL (≈ 3.57 µM)
Fc1ccccc1-c1nc(-c2cnc3ccccc3c2)c(-c2cccs2)[nH]1 | 5.05 µg/mL (≈ 13.6 µM)
CC(=O)NC(=S)NNC(=O)c1ccc(C(C)(C)C)cc1 | 0.29 µg/mL (≈ 0.988 µM)
Cc1cccc(Nc2nc(-c3ccccn3)cs2)n1 | < 0.1 µg/mL
C=CCn1c(Sc2ccc(C(F)(F)F)cc2[N+](=O)[O-])nnc1-c1ccccc1Cl | 0.19 µg/mL (≈ 0.431 µM)
COC(=O)CSc1[nH]c2ccc(Br)cc2c1[N+](=O)[O-] | > 50 µg/mL (inactive)
CCCOC(=O)c1ccc(NC(=S)NC(=O)c2ccc(Cl)cc2)cc1 | 0.8 µg/mL (≈ 2.12 µM)
CN(C)C(=S)NC(=O)c1cccc(Cl)c1 | 4.63 µg/mL (≈ 19.1 µM)
N#CSc1ccc(NC(=O)CSc2nc3ccccc3[nH]2)cc1 | 6.24 µg/mL (≈ 18.3 µM)
O=[N+]([O-])c1ccccc1C1Nc2ccc(Cl)cc2C2C=CCC21 (stereo not given) | 10.5 µg/mL (≈ 32.3 µM)
CCOC(=O)COc1ccc(C(=O)Nc2ccc(F)cc2)cc1 | < 0.1 µg/mL
C=C1C2(C(=O)Nc3nc4ccc(Br)cc4s3)CCC(C2)C1(C)C (stereo not given) | 11.4 µg/mL (≈ 29.1 µM)
CCOC(=O)C1=C(C)N=c2s/c(=C\c3ccc([N+](=O)[O-])o3)c(=O)n2C1c1ccc(OCC)cc1 (stereo not given) | > 50 µg/mL (inactive)

Structure (SMILES) | IC50
O=C(CC1(O)C(=O)N(CCc2ccccc2)c2ccc(Cl)cc21)c1ccc(Cl)s1 (stereo not given) | 5.18 µg/mL (≈ 11.6 µM)
COC(=O)COc1ccc(S(=O)(=O)Nc2cccc(Cl)c2C)cc1 | 9.72 µg/mL (≈ 26.3 µM)
Cc1cc(OCCCCn2ccnc2)ccc1C(C)C | 2.57 µg/mL (≈ 9.43 µM)
COc1cccc(C2Oc3ccccc3C=C2[N+](=O)[O-])c1OC (stereo not given) | > 50 µg/mL (inactive)
CS(=O)(=O)c1ncc(Cl)c(C(=O)Nc2cc(C(F)(F)F)ccc2Cl)n1 | 17.1 µg/mL (≈ 41.3 µM)
O=[N+]([O-])/C=C/c1ccc(-c2ccc(F)cc2)o1 | 10.1 µg/mL (≈ 43.3 µM)
CCCCNCCOc1ccc(Cl)cc1C(C)(C)C | 12.8 µg/mL (≈ 45 µM)
Cc1ccc(C)c(NC(=O)c2ccc(-c3ccccc3Cl)o2)c1 | 12.9 µg/mL (≈ 39.7 µM)
Clc1ccc(SCCCn2ccnc2)cc1 | 2.36 µg/mL (≈ 9.34 µM)
CCN(CC)c1ccc(NC(=S)Nc2ccc(F)c(Cl)c2)cc1 | 7.64 µg/mL (≈ 21.7 µM)
O=[N+]([O-])c1ccc2nc(CSc3nc4ccccc4o3)[nH]c2c1 | 3.21 µg/mL (≈ 9.84 µM)
Cc1cc(C)nc(/N=C(\N)Nc2ccc(OCc3ccc(Cl)cc3)cc2)n1 | 34.4 µg/mL (≈ 90.2 µM)
O=C(CSc1ccc(Br)cc1)Nc1ccc([N+](=O)[O-])cc1 | 23.6 µg/mL (≈ 64.2 µM)
COC(=O)CSc1[nH]c2ccc(F)cc2c1[N+](=O)[O-] | 23.2 µg/mL (≈ 81.7 µM)
Cc1sc2ncnc(N3CCN(CCOc4ccc(Cl)cc4)CC3)c2c1C | > 50 µg/mL (inactive)
O=C(CCNc1ccc(Cc2ccncc2)cc1)c1cccs1 | 5.83 µg/mL (≈ 18.1 µM)
CCOc1ccc(NC(=S)Nc2ccc3nsnc3c2)cc1 | 0.52 µg/mL (≈ 1.57 µM)
COc1ccc2oc(=O)c(C(=O)Oc3ccc(Cl)cc3)cc2c1 | > 50 µg/mL (inactive)
O=C(CCNc1cccc(Cl)c1)c1ccc([N+](=O)[O-])cc1 | 2.87 µg/mL (≈ 9.42 µM)
COc1c(C)cccc1C(=O)Nc1ccc(N2CCCC2)cc1 | 4.85 µg/mL (≈ 15.6 µM)
O=[N+]([O-])c1ccc(NC(=S)NCc2ccc(F)cc2)cc1 | 4.86 µg/mL (≈ 15.9 µM)
c1ccc(-c2nnc3sc(-c4cc5ccccc5o4)nn23)cc1 | 4.89 µg/mL (≈ 15.4 µM)
Cc1cc(OCCCn2ccnc2)ccc1C(C)C | 4.44 µg/mL (≈ 17.2 µM)

Structure (SMILES) | IC50
Cc1ccc(SCC(=O)Nc2cccc(F)c2)cc1 | 5.34 µg/mL (≈ 19.4 µM)
COc1ccc(CNC(=O)c2c(N)nc3sc4c(c3c2C(F)(F)F)CCC4)cc1 | 0.31 µg/mL (≈ 0.736 µM)
Cc1ccc(C(=O)Nc2ccc(N3CCCC3)c(Cl)c2)c(C)c1 | 6.72 µg/mL (≈ 20.4 µM)
Cc1cc(C)c(-n2c(O)c(/C=C3\C=CC=N3)c(=O)[nH]c2=O)c(C)c1 | 0.13 µg/mL (≈ 0.402 µM)
Cc1cc(C)nc(/N=C(/N)Nc2cc(Oc3ccccc3)ccc2Cl)n1 | 4.87 µg/mL (≈ 13.2 µM)
CC(C)COc1ccc(CNC(=S)NCc2ccccc2)cc1 | 4.39 µg/mL (≈ 13.4 µM)
O=C(CCN1CCC(c2ccccc2)C1)c1ccccc1 (stereo not given) | 12.5 µg/mL (≈ 44.6 µM)
O=C(Oc1c(Cl)cc(Cl)c2cccnc12)c1cc(S(=O)(=O)N2CCCCC2)ccc1Cl | 0.48 µg/mL (≈ 0.96 µM)
COC(=O)c1ccc(OCC(O)CN2CCN(c3cc(Cl)ccc3C)CC2)cc1 (stereo not given) | 5.13 µg/mL (≈ 12.2 µM)
CCC(C)c1ccc(O)c(NC(=S)NC(=O)c2cncc(Br)c2)c1 (stereo not given) | < 0.1 µg/mL
O=C(COc1ccc(C(=O)NCc2ccccc2)cc1)OC1CCCCC1 | 0.73 µg/mL (≈ 1.99 µM)
COc1ccc(-c2cc(C(F)F)n3ncc(C(=O)NCCCn4ccnc4)c3n2)cc1 | 8.99 µg/mL (≈ 21.1 µM)
COc1cc(SC)ccc1C(=O)NCCOc1ccc(F)cc1 | 12.1 µg/mL (≈ 36.2 µM)
CCOc1ccc(NC(=O)CSc2nnc(-c3ccccc3Cl)o2)cc1 | 3.35 µg/mL (≈ 8.59 µM)
O=C(CNCCN1CCOCC1)Nc1sc2c(c1C(=O)Nc1ccccc1)CCC2 | 2.12 µg/mL (≈ 4.95 µM)
Cc1cc(O)ccc1N1C(=O)c2cccc3c([N+](=O)[O-])ccc(c23)C1=O | 21.3 µg/mL (≈ 61.1 µM)
FC(F)(F)c1cccc(NC(=S)Nc2cccc(Cl)c2)c1 | 13.5 µg/mL (≈ 40.9 µM)
Nc1nc2ccccc2n1CCOc1cccc2ccccc12 | 4.95 µg/mL (≈ 16.3 µM)
CCOC(=O)CSc1nnc2c3sc4nc(N5CCOCC5)c5c(c4c3ncn12)CC(C)(C)OC5 | 1.33 µg/mL (≈ 2.58 µM)
Cc1ccc(-c2csc3nc4c5ccccc5c(NCCCN5CCOCC5)nn4c(=O)c23)cc1 | > 50 µg/mL (inactive)
CSc1cccc(NC(=O)C2CCN(C(=O)c3ccc(-c4ccccc4)cc3)CC2)c1 | 5.73 µg/mL (≈ 13.3 µM)
O=C(Nc1ccc(N2CCCC2)c(Cl)c1)c1ccccc1F | 5.78 µg/mL (≈ 18.1 µM)
O=C(Oc1cccc2cccnc12)c1cc2ccccc2oc1=O | 3.06 µg/mL (≈ 9.64 µM)
